# Reference: patent US11786492B2, “Therapeutic agent for phosphodiesterase inhibition and its related disorders” (Novalead Pharma Inc, priority 2017, dated 2023)
# pIC50: −log10 of the molar value.
# Legend:
# human PBMCs = assay: Cell viability of human PBMCs, Alamar blue; assay type: cell-based
# Experimental: Fresh human blood from healthy volunteer was collected in anticoagulant (5 mM) ethylene diamine tetra acetic acid (EDTA) containing tubes. The growth medium used was RPMI-1640 medium (with 3% FBS) and incubated at 37° C. for 60 mins in a 5% CO2 incubator with vehicle used as 1% DMSO. The cell viability was checked at various time points using Alamar blue and fluorescence readings were taken at excitation of 544 nm and emission of 590 nm.
# HaCaT cells [1] = assay: Cell viability of HaCaT cells, Alamar blue; assay type: cell-based, human
# Experimental: (§1) HaCaT cells were maintained in T-75 cm2 flask in Dulbecco's modified Eagle medium supplemented with FBS (10%), L-glutamine (2 mM), penicillin (100 ug/ml), streptomycin (100 ug/ml) at 37° C. in 5% CO2 incubator. Cell growth was maintained to 70-80% confluence for seeding and vehicle used was 1% DMSO. The cell viability was checked at various time points using Alamar blue and fluorescence readings were taken at excitation of 544 nm and emission of 590 nm.
# PDE2 (Human platelets) = molecular target: T1, PDE2 (Human platelets) (Homo sapiens, UniProt O00408); assay: Radiolabeled enzyme assay PDE2; assay type: biochemical; conditions: read-out: % inhibition at 30 μM, 1.01 μM [3H]cAMP+cAMP
# T1 construct: PDE2 (Human platelets); from tissue; host or cells: human platelets
# Experimental: (§2) Enzyme assays have been optimized for incubation time, substrate concentration and method of end-product determination.
# PDE5 (Human platelets) = molecular target: T2, PDE5 (Human platelets) (Homo sapiens, UniProt O76074); assay: Radiolabeled enzyme assay PDE5; assay type: biochemical; conditions: read-out: % inhibition at 30 μM, 1.01 μM [3H]cGMP+cGMP
# T2 construct: PDE5 (Human platelets); from tissue; host or cells: human platelets
# Experimental: as §2
# PDE1A = PDE1A (Homo sapiens, UniProt P54750); assay: Fluorescence polarization assay PDE1A; assay type: biochemical; conditions: substrate cGMP, Ca-CaM
# Experimental: (§3) An experiment to check inhibition of various subtypes of the target Phosphodiesterase (PDE) enzyme in in-vitro assay was performed. […] PDE1A, PDE2A, PDE4A, PDE4B, PDE4C, PDE4D, PDE5A, PDE7A, PDE9A, PDE10A.
# PDE2A = PDE2A (Homo sapiens, UniProt O00408); assay: Fluorescence polarization assay PDE2A; assay type: biochemical; conditions: substrate cGMP
# Experimental: as §3
# PDE4A = PDE4A (Homo sapiens, UniProt P27815); assay: Fluorescence polarization assay PDE4A; assay type: biochemical; conditions: substrate cAMP
# Experimental: as §3
# PDE4B = PDE4B (Homo sapiens, UniProt Q07343); assay: Fluorescence polarization assay PDE4B; assay type: biochemical; conditions: substrate cAMP
# Experimental: as §3
# PDE4C = PDE4C (Homo sapiens, UniProt Q08493); assay: Fluorescence polarization assay PDE4C; assay type: biochemical; conditions: substrate cAMP
# Experimental: as §3
# PDE5A = PDE5A (Homo sapiens, UniProt O76074); assay: Fluorescence polarization assay PDE5A; assay type: biochemical; conditions: substrate cGMP
# Experimental: as §3
# PDE7A = PDE7A (Homo sapiens, UniProt Q13946); assay: Fluorescence polarization assay PDE7A; assay type: biochemical; conditions: substrate cAMP
# Experimental: as §3
# PDE9A = PDE9A (Homo sapiens, UniProt O76083); assay: Fluorescence polarization assay PDE9A; assay type: biochemical; conditions: substrate cGMP
# Experimental: as §3
# PDE10A = PDE10A (Homo sapiens, UniProt Q9Y233); assay: Fluorescence polarization assay PDE10A; assay type: biochemical; conditions: substrate cAMP
# Experimental: as §3
# HaCaT cells [2] = assay: Keratinocyte (HaCaT) proliferation, MTT assay; assay type: cell-based, human; conditions: Homo sapiens, HaCaT, 72 h; read-out: IC50 of cell proliferation
# Experimental: An experiment to check keratinocyte proliferation inhibitory activity of selected compounds of Formula-I was performed to establish its application in skin disorders related to keratinocyte hyper-proliferation. HaCaT cells, a human immortalized cell line derived from keratinocytes, representing hyper-proliferating keratinocytes was investigated for anti-proliferative potential of the selected compounds by MTT assay.
# TNF-α = TNF-α release from stimulated HaCaT cells, ELISA; assay type: cell-based, human; conditions: IFN-γ 50 ng/mL, 48 hrs
# Experimental: as §1
# (§4) HaCaT cells were stimulated with different stimulators as follows: • a. Cells were exposed to stimulator LPS at 1 μg/mL for 48 hrs to stimulate IL-1β • b. Cells were exposed to stimulator IFN-γ at 50 ng/mL for 48 hrs to stimulate TNF-α, IL-6
# (§5) After 48 hrs supernatants were collected and centrifuged to remove any cell debris and aliquots were used for ELISA.
# IL-6 = IL-6 release from stimulated HaCaT cells, ELISA; assay type: cell-based, human; conditions: for IL-6 Conc.: IFN-γ 50 ng/mL, 48 hrs
# Experimental: as §1, §4, §5
# [3] = tested on: Imiquimod induced psoriasis in BALB/c mice; assay: Imiquimod induced psoriasis model in Balb/c mice; conditions: for % inhibition of Ear inflamn. / Histopathology Scores Epidermal Thickness / Histopathology Scores Hyperkeratosis / Histopathology Scores Rete Peg Prolifern. / PASI score / Spleen weight / IL23 Levels: twice daily; for IL23 Levels: ear tissue lysate
# Experimental: BALB/c mice (Sex: Female, Age: 7-8 Weeks) were used for induction of psoriasis using IMQ. Topical application of imiquimod (IMQ) in mice can induce and exacerbate psoriasis closely resembling human psoriasis. […] 3%, 4% and 5% and positive control of Tenovate (Clobetasol) 0.05% cream. In all 63 mg cream containing 5% of IMQ was applied to dorsal area (shaved back) and right ear for 8 days. Topical formulations from Example 7 were used during this experiment.
# The parameters investigated were ear thickness change, % inhibition of ear inflammation, Psoriatic Area Severity Index (PASI). Histopathology was performed of right ear and dorsal skin by H & E staining. The biomarker in this study was inflammatory cytokine IL-23 analyzed by ELISA obtained from tissue lysate of ear region where IMQ and doses were applied.
# Chain of PDE4B (Q07343 whole entry, species assumed): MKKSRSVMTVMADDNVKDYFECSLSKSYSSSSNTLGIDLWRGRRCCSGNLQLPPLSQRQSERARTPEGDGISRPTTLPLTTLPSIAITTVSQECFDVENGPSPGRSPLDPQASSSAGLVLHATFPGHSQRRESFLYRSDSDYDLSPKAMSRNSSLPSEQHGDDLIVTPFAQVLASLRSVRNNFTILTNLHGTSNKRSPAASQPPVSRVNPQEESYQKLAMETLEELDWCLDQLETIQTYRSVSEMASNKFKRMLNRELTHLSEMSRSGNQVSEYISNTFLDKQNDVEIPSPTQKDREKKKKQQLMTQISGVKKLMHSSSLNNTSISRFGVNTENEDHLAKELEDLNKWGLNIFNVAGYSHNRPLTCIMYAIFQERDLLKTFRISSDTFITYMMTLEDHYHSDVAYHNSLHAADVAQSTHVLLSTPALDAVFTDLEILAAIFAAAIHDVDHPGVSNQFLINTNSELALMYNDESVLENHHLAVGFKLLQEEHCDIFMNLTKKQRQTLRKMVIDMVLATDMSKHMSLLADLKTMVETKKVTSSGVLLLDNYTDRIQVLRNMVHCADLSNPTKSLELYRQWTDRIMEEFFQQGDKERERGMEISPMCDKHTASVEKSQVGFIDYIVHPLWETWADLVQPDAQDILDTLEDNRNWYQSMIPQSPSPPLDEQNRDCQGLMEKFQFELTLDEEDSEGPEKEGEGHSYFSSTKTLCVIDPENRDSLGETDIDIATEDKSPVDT
# Chain of PDE4C (Q08493 whole entry, species assumed): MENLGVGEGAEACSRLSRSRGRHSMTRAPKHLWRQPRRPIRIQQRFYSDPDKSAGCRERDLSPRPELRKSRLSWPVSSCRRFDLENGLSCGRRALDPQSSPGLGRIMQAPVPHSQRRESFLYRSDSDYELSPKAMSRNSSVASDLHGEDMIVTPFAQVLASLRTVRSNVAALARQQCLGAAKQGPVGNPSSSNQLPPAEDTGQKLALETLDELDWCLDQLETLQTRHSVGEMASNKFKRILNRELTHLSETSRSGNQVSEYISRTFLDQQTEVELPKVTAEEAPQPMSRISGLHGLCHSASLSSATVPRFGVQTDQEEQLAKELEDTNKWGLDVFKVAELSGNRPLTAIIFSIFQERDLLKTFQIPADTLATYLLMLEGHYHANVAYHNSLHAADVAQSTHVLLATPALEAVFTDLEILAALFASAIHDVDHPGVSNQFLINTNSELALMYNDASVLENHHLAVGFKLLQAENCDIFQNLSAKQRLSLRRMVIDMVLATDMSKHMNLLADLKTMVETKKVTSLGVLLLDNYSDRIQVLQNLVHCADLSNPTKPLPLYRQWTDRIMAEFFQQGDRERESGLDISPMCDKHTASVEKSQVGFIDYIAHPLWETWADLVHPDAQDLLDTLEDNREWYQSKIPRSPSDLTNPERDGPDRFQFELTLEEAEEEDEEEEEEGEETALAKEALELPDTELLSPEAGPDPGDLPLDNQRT
# Chain of PDE7A (Q13946 whole entry, species assumed): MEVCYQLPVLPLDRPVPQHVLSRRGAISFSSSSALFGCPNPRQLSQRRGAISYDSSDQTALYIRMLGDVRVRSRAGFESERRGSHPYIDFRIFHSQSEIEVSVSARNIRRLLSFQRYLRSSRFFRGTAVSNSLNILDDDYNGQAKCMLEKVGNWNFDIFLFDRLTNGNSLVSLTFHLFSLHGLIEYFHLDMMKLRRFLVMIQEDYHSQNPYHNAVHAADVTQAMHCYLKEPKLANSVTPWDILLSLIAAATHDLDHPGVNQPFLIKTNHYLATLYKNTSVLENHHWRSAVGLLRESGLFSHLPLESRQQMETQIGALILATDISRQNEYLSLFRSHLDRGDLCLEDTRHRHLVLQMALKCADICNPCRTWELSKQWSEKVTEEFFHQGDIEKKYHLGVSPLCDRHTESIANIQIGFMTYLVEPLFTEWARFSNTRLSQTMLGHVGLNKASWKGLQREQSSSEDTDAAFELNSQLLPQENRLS
# Chain of PDE9A (O76083 whole entry, species assumed): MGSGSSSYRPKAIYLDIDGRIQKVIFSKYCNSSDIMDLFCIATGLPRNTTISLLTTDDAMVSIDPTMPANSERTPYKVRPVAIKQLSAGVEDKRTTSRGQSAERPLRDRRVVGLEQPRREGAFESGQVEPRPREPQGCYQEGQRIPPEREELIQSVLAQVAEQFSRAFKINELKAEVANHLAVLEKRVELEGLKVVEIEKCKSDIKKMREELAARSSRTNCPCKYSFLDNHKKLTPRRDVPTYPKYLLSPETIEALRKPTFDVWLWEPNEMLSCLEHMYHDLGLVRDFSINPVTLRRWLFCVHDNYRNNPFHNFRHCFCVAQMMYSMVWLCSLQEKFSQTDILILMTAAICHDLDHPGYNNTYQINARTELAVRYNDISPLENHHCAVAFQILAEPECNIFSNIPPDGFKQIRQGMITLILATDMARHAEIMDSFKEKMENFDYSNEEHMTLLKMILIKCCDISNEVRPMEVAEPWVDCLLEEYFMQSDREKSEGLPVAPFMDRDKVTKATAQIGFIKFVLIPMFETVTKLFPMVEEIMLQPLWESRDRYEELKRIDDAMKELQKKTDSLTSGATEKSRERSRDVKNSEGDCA
# Chain of PDE2A (O00408 whole entry, species assumed): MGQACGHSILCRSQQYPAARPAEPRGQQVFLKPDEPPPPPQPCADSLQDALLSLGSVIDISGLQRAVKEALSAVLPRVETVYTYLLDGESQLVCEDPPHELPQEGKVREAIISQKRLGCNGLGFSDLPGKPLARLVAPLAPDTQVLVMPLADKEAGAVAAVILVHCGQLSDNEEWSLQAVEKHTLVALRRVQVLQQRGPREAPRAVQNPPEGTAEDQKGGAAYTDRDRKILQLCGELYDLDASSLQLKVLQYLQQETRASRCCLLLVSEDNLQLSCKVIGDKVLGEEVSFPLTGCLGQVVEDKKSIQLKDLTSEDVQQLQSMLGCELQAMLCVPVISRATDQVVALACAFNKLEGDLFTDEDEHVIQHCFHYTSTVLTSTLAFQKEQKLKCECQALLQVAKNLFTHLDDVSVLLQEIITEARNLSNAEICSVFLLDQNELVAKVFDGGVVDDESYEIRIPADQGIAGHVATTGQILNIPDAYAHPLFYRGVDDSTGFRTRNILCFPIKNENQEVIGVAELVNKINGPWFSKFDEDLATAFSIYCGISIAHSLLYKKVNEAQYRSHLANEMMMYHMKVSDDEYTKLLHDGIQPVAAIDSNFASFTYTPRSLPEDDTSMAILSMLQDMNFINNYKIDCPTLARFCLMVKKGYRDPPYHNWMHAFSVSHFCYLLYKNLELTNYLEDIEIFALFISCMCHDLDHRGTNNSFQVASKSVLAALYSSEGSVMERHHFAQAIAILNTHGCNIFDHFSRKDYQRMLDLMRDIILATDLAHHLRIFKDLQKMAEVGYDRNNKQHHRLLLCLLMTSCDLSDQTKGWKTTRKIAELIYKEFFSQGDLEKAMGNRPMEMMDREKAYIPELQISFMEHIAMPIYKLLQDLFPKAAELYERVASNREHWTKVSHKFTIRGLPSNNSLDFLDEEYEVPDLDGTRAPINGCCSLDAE
# T1 sequence (O00408 whole entry): as the sequence (O00408 whole entry, species assumed) above
# Chain of PDE4A (P27815 whole entry, species assumed): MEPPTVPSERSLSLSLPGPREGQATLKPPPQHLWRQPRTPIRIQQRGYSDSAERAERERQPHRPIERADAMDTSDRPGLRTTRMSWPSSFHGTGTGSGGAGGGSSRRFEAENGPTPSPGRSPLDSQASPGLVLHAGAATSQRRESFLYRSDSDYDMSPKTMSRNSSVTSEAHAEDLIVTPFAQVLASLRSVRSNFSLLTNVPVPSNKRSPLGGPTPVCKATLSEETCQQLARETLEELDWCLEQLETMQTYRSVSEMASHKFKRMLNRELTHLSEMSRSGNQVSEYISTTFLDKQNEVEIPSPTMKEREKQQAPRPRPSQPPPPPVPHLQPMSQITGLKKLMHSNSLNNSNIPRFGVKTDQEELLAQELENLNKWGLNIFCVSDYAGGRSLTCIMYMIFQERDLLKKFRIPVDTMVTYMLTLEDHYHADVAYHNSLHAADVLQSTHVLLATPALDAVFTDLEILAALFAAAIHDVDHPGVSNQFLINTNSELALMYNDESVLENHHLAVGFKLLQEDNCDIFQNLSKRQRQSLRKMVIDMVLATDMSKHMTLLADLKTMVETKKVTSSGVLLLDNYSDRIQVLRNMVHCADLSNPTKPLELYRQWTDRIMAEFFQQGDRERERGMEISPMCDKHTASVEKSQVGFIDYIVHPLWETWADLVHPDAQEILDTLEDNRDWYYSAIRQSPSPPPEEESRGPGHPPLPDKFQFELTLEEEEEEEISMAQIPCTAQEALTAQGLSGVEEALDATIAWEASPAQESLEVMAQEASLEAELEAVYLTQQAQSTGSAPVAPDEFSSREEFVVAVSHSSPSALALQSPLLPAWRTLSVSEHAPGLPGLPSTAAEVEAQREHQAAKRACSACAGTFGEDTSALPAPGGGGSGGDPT
# Chain of PDE1A (P54750 whole entry, species assumed): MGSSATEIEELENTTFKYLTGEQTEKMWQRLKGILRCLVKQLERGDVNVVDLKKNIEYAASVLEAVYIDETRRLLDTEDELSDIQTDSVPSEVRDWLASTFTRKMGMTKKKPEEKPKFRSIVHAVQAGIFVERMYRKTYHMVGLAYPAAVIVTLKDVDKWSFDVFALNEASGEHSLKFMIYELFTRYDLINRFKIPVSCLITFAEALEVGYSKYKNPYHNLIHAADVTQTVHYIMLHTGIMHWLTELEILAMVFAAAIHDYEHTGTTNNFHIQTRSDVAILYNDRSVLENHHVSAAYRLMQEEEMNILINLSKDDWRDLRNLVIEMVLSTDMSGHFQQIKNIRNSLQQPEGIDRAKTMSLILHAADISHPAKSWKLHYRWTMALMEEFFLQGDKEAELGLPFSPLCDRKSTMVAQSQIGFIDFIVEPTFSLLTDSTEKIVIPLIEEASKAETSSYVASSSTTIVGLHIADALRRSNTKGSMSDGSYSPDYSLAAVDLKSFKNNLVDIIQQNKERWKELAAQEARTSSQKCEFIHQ
smiles,measurement,setting,value
COc1cccc2c1C(=O)c1c(O)c3c(c(O)c1C2=O)C[C@@](O)(C(=O)CO)C[C@@H]3O[C@H]1C[C@H](N)[C@H](O)[C@H](C)O1 [Doxorubicin],% Viability (±S.E.M.),"human PBMCs; 3 μM, 24 hrs",110 ± 1%
same,% Viability (±S.E.M.),"human PBMCs; 3 μM, 48 hrs",70 ± 5%
same,% Viability (±S.E.M.),"human PBMCs; 3 μM, 72 hrs",52 ± 1%
same,% Viability (±S.E.M.),"HaCaT cells [1]; 3 μM, 24 hrs",74 ± 6%
same,% Viability (±S.E.M.),"HaCaT cells [1]; 3 μM, 48 hrs",108 ± 5%
same,% Viability (±S.E.M.),"HaCaT cells [1]; 3 μM, 72 hrs",110 ± 2%
O=C(Nc1ccc([N+](=O)[O-])cc1Cl)c1cc(Cl)ccc1O [Niclosamide],inhibition at 30 µM,PDE2 (Human platelets),16%
same,inhibition at 30 µM,PDE5 (Human platelets),49%
same,pIC50,PDE1A,4.05
same,pIC50,PDE2A,4.94
same,pIC50,PDE4A,4.00
same,pIC50,PDE4B,4.16
same,pIC50,PDE4C,4.69
same,pIC50,PDE5A,4.78
same,pIC50,PDE7A,4.72
same,pIC50,PDE9A,4.22
same,pIC50,PDE10A,4.72
same,pIC50,HaCaT cells [2],5.49
same,% Viability (±S.E.M.),"human PBMCs; 0.01 μM, 24 hrs",134 ± 7%
same,% Viability (±S.E.M.),"human PBMCs; 0.01 μM, 48 hrs",107 ± 1%
same,% Viability (±S.E.M.),"human PBMCs; 0.01 μM, 72 hrs",107 ± 6%
same,% Viability (±S.E.M.),"human PBMCs; 1 μM, 24 hrs",94 ± 4%
same,% Viability (±S.E.M.),"human PBMCs; 1 μM, 48 hrs",63 ± 0%
same,% Viability (±S.E.M.),"human PBMCs; 1 μM, 72 hrs",60 ± 1%
same,% Viability (±S.E.M.),"human PBMCs; 100 μM, 24 hrs",27 ± 5%
same,% Viability (±S.E.M.),"human PBMCs; 100 μM, 48 hrs",2 ± 1%
same,% Viability (±S.E.M.),"human PBMCs; 100 μM, 72 hrs",−2 ± 0%
same,% Viability (±S.E.M.),"HaCaT cells [1]; 0.1 μM, 24 hrs",111 ± 9%
same,% Viability (±S.E.M.),"HaCaT cells [1]; 0.1 μM, 48 hrs",82 ± 3%
same,% Viability (±S.E.M.),"HaCaT cells [1]; 0.1 μM, 72 hrs",98 ± 6%
same,% Viability (±S.E.M.),"HaCaT cells [1]; 1 μM, 24 hrs",62 ± 4%
same,% Viability (±S.E.M.),"HaCaT cells [1]; 1 μM, 48 hrs",46 ± 0%
same,% Viability (±S.E.M.),"HaCaT cells [1]; 1 μM, 72 hrs",59 ± 11%
same,% Viability (±S.E.M.),"HaCaT cells [1]; 5 μM, 24 hrs",48 ± 1%
same,% Viability (±S.E.M.),"HaCaT cells [1]; 5 μM, 48 hrs",36 ± 2%
same,% Viability (±S.E.M.),"HaCaT cells [1]; 5 μM, 72 hrs",45 ± 8%
same,% Viability (±S.E.M.),"HaCaT cells [1]; 10 μM, 48 hrs",29 ± 1%
same,% Viability (±S.E.M.),"HaCaT cells [1]; 10 μM, 72 hrs",33 ± 2%
same,% Viability (±S.E.M.),"HaCaT cells [1]; 50 μM, 24 hrs",28 ± 1%
same,% Viability (±S.E.M.),"HaCaT cells [1]; 50 μM, 48 hrs",16 ± 0%
same,% Viability (±S.E.M.),"HaCaT cells [1]; 50 μM, 72 hrs",23 ± 7%
same,TNF-α Conc.,TNF-α; 0.05 μM,2.5 ± 0.1 pg/mL
same,TNF-α Conc.,TNF-α; 0.1 μM,2.8 ± 0.1 pg/mL
same,TNF-α Conc.,TNF-α; 0.25 μM,2.5 ± 0.1 pg/mL
same,IL-6 Conc.,IL-6; 0.05 μM,103 ± 4 pg/mL
same,IL-6 Conc.,IL-6; 0.1 μM,76 ± 4 pg/mL
same,IL-6 release in HaCaT cells (in words),IL-6; 0.25 μM,Reduction in IL-6 release
same,IL-6 Conc.,IL-6; 0.25 μM,54 ± 11 pg/mL
same,% inhibition of Ear inflamn.,[3]; 1% topical,27.1%
same,Histopathology Scores Epidermal Thickness,[3]; 1% topical,6.8 ± 0.2
same,Histopathology Scores Hyperkeratosis,[3]; 1% topical,0.8 ± 0.2
same,Histopathology Scores Rete Peg Prolifern.,[3]; 1% topical,1.8 ± 0.2
same,PASI score,[3]; 1% topical,15.8 ± 3.0
same,Spleen weight,"[3]; 1% topical, Day 9",265.2 ± 49.2 mg
same,IL23 Levels,[3]; 1% topical,119.9 ± 7.8 pg/mL
same,% inhibition of Ear inflamn.,[3]; 2% topical,30.4%
same,Histopathology Scores Epidermal Thickness,[3]; 2% topical,5.6 ± 0.8
same,Histopathology Scores Hyperkeratosis,[3]; 2% topical,1.4 ± 0.2
same,Histopathology Scores Rete Peg Prolifern.,[3]; 2% topical,1.4 ± 0.2
same,PASI score,[3]; 2% topical,17.2 ± 1.7
same,Spleen weight,"[3]; 2% topical, Day 9",214.4 ± 15.1 mg
same,IL23 Levels,[3]; 2% topical,96.6 ± 10.9 pg/mL
same,reduction in the PASI score,[3]; 3% concentration,up to 50%
same,% inhibition of Ear inflamn.,[3]; 3% topical,42.7%
same,Histopathology Scores Epidermal Thickness,[3]; 3% topical,5.2 ± 0.2
same,Histopathology Scores Hyperkeratosis,[3]; 3% topical,1.0 ± 0.0^$
same,Histopathology Scores Rete Peg Prolifern.,[3]; 3% topical,0.5 ± 0.2
same,PASI score,[3]; 3% topical,10.7 ± 4.1
same,Spleen weight,"[3]; 3% topical, Day 9",229.7 ± 18.7 mg
same,IL23 Levels,[3]; 3% topical,83.6 ± 9.8 pg/mL
same,Spleen weight vs disease control (in words),"[3]; Niclosamide 2%, Nitazoxanide 3% and 5%, Clobetasol 0.05%, Day 9",marginal reduction in spleen weight
same,IL-23 level in ear tissue homogenates (in words),[3]; different doses,reduction of IL-23 level
same,Hyperkeratosis (in words),[3]; ear lobe histopathology,significant reduction in Hyperkeratosis
